Reference: US7611721B1, “Adjuvant combination formulations” (priority 2000, dated 2009)
Values joined by “and” are separate entries in the source; they are usually repeats but may differ in a detail not shown here. Equal entries are not always repeated.

Key:
[1] = system: T1SP10MN(A) (+Cys); assay: Reciprocal anti-T1SP10MN(A) (+Cys) serum IgG and subclass endpoint titers, Balb/c mice; type: in vivo; conditions: n=3 Balb/c
Text: The protocols of Experiment 2 were followed, except that the HIV peptide contained a cysteine at amino acid position 17, and the mice (n=3 Balb/c) were immunized subcutaneously on days 0 and 21, and bled for serological evaluation on days −1 (the day before first immunization), 13, 20 and 28. […] The HIV peptide T1SP10MN(A) (+Cys) (26) contains a cysteine at amino acid position 17 and is 40 residues long. T1SP10MN(A) (+Cys) was purchased from Genosys Biotechnologies (The Woodlands, Tex.).
Reciprocal anti-T1SP10MN(A) IgG endpoint titers were measured from individual mice and their geometric means (n=3 Balb/c) 28 days after initial immunization.
The protocols of Experiment 6 were followed, except that mice (n=3 Balb/c) were immunized subcutaneously on days 0 and 32, and bled for serological evaluation on day 38.
Reciprocal anti-T1SP10MN(A) (+Cys) IgG endpoint titers were measured from individual mice and their geometric means (n=3 Balb/c) 38 days after initial immunization.

[2] = system: P815 cells pulsed with HIVMN CTL epitope peptide; assay: CTL analysis of spleen cells (chromium release); type: cell-based; conditions: separate experiments; Balb/c mice immunized with peptide
Description: FIG. 5 depicts the CTL activity of spleen cells isolated from mice seven days after secondary immunization. Spleen cells were harvested from groups of three Balb/c mice immunized on days 0 and 21 with 50 μg T1SP10MN(A) […] formulated with 50 μg MPL™ in 1% SE with or without 10 μg GM-CSF. Cells were cultured with the HIVMN CTL epitope peptide for seven days. IL-2 was added to the cultures for the last five days. Effector spleen cells were added to chromium-labelled P815 cells pulsed with HIVMN, another strain designated HIVIIIB or no peptide at the indicated ratios. Percent CTL activity was calculated as: […]
The protocols of Experiment 6 were followed regarding immunization of mice. The CTL activity of spleen cells isolated from mice seven days after secondary immunization was assessed. MPL™ SE was formulated with 50 μg MPL™ in 1% SE, with or without 10 μg GM-CSF, plus 50 μg T1SP10MN(A) (+Cys).
For CTL analysis, spleen cells were removed from immunized mice 14 days after primary, and seven days after secondary immunization. A protocol previously described (34) was essentially followed. […] Percent CTL activity was calculated as the percentage of chromium release using ((specific chromium release−spontaneous chromium release)/(maximal chromium release−spontaneous chromium release))×100. Chromium release was assessed after a six hour incubation period. […]

[3] = system: spleen cells; assay: Spleen cell proliferation in response to RSV F protein; type: cell-based, Balb/c mice; conditions: Experiment 12; spleen cells 14 days post-secondary immunization; 2.5 μg/ml RSV F protein, 96 hours; normalized to ConA
Description: Spleen cells were harvested at 14 days post-secondary immunization and were established in culture at a density of 5×10^5 cells. Cells were cultured for a total of 96 hours. ^3H-thymidine was added to cultures for the last 18 hours. Data are presented as a proliferation index normalized to cells stimulated in culture with ConA ([mean cpm Antigen/mean cpm ConA]−[mean cpm medium/mean cpm ConA])×100. As a result, cells cultured in medium have a background proliferation of 0.

[4] = Experiment 6, immunized days 0 and 21, day 28
[5] = Experiment 7, immunized days 0 and 32, day 38

With “3-O-deacylated monophosphoryl lipid A [MPL ™]” the “Anti-HIV Peptide (+Cys) IgG1 GMT” value [1, 4] was 84,978, the “Anti-HIV Peptide (+Cys) IgG1 endpoint titer, individual mice” value [1, 4] was 23,249 and 155,199 and 170,071 and the “Anti-HIV Peptide (+Cys) IgG2a GMT” value [1, 4] was 2,859. For the same substance, the “Anti-HIV Peptide (+Cys) IgG2a endpoint titer, individual mice” value [1, 4] was 500 and 1,628 and 28,722, the “Anti-HIV Peptide (+Cys) IgG2b GMT” value [1, 4] was 2,906 and the “Anti-HIV Peptide (+Cys) IgG2b endpoint titer, individual mice” value [1, 4] was 500 and 1,102 and 44,531. For the same substance, the “Anti-HIV Peptide (+Cys) IgG GMT” value [1, 4] was 350,486, the “Anti-HIV Peptide (+Cys) IgG endpoint titer, individual mice” value [1, 4] was 91,728 and 529,663 and 886,156 and the “Anti-HIV Peptide (+Cys) IgG1 GMT” value [1, 5] was 115,544. For the same substance, the “Anti-HIV Peptide (+Cys) IgG1 endpoint titer, individual mice” value [1, 5] was 148,818 and 90,380 and 114,686, the “Anti-HIV Peptide (+Cys) IgG2a GMT” value [1, 5] was 3,429 and the “Anti-HIV Peptide (+Cys) IgG2a endpoint titer, individual mice” value [1, 5] was 11,874 and 1,674 and 2,028. The “Anti-HIV Peptide (+Cys) IgG2b GMT” value [1, 5] was 4,980, the “Anti-HIV Peptide (+Cys) IgG2b endpoint titer, individual mice” value [1, 5] was 9,685 and 3,605 and 3,538 and the “Anti-HIV Peptide (+Cys) IgG GMT” value [1, 5] was 442,259. The “Anti-HIV Peptide (+Cys) IgG endpoint titer, individual mice” value [1, 5] was 404,755 and 446,952 and 478,163, the “Peptide-specific CTL responses” value [2] was under 30% and the “Normalized Proliferation Index” value [3] was 0.4.
